Measured values as given in ChEMBL document CHEMBL3045375, “Synthesis, characterization and biological activity of some new carbostyril bearing 1H-pyrazole moiety” (2012).
Values after ≈ are worked out from the molar mass of the structure shown.

Legend:
Assay type in all cases: functional
Candida albicans = experiment: Antifungal activity against Candida albicans MTCC 227 after 48 hr by broth microdilution method
Aspergillus fumigatus = experiment: Antifungal activity against Aspergillus fumigatus MTCC 3008 after 48 hr by broth microdilution method
Escherichia coli = experiment: Antibacterial activity against Escherichia coli MTCC 443 after 24 hr by broth microdilution method; conditions: MTCC 443, 24 h
Bacillus subtilis = experiment: Antibacterial activity against Bacillus subtilis MTCC 441 after 24 hr by broth microdilution method
Streptococcus pneumoniae = experiment: Antibacterial activity against Streptococcus pneumoniae MTCC 1936 after 24 hr by broth microdilution method; conditions: MTCC 1936, 24 h

Compound | MIC (Candida albicans; MTCC 227, 48 h) | MIC (Aspergillus fumigatus; MTCC 3008, 48 h) | MIC (Escherichia coli) | MIC (Bacillus subtilis; MTCC 441, 24 h) | MIC (Streptococcus pneumoniae) | MIC (Candida albicans) | MIC (Aspergillus fumigatus) | MIC (Bacillus subtilis)
O=C1CCCC2=C1C(c1cn(-c3ccccc3)nc1-c1ccc(F)cc1)CC(=O)N2c1ccc(F)cc1 (centres undefined) | 500 µg/mL (≈ 1010 µM) | 1000 µg/mL (≈ 2020 µM) | 250 µg/mL (≈ 505 µM) | 0.1 µg/mL (≈ 0.202 µM) | 200 µg/mL (≈ 404 µM) | – | – | –
CC1(C)CC(=O)C2=C(C1)N(c1ccc(F)cc1)C(=O)CC2c1cn(-c2ccccc2)nc1-c1ccc([N+](=O)[O-])cc1 (centres undefined) | 1000 µg/mL (≈ 1820 µM) | 1000 µg/mL (≈ 1820 µM) | 100 µg/mL (≈ 182 µM) | 0.25 µg/mL (≈ 0.454 µM) | 250 µg/mL (≈ 454 µM) | – | – | –
O=C1CCCC2=C1C(c1cn(-c3ccccc3)nc1-c1ccc([N+](=O)[O-])cc1)CC(=O)N2c1ccc(F)cc1 (centres undefined) | 500 µg/mL (≈ 957 µM) | 1000 µg/mL (≈ 1910 µM) | 62.5 µg/mL (≈ 120 µM) | 0.2 µg/mL (≈ 0.383 µM) | 100 µg/mL (≈ 191 µM) | – | – | –
CC1(C)CC(=O)C2=C(C1)N(c1ccc(F)cc1)C(=O)CC2c1cn(-c2ccccc2)nc1-c1ccc(Br)cc1 (centres undefined) | 100 µg/mL (≈ 171 µM) | 100 µg/mL (≈ 171 µM) | 500 µg/mL (≈ 855 µM) | 0.5 µg/mL (≈ 0.855 µM) | 250 µg/mL (≈ 428 µM) | – | – | –
CC1(C)CC(=O)C2=C(C1)N(c1ccc(F)cc1)C(=O)CC2c1cn(-c2ccccc2)nc1-c1ccc(Cl)cc1 (centres undefined) | 1000 µg/mL (≈ 1850 µM) | 500 µg/mL (≈ 926 µM) | 50 µg/mL (≈ 92.6 µM) | 0.15 µg/mL (≈ 0.278 µM) | 250 µg/mL (≈ 463 µM) | – | – | –
O=C1CCCC2=C1C(c1cn(-c3ccccc3)nc1-c1ccc(Cl)cc1)CC(=O)N2c1ccc(F)cc1 (centres undefined) | 500 µg/mL (≈ 977 µM) | > 1000 µg/mL | 100 µg/mL (≈ 195 µM) | 0.25 µg/mL (≈ 0.488 µM) | 250 µg/mL (≈ 488 µM) | – | – | –
O=C1CCCC2=C1C(c1cn(-c3ccccc3)nc1-c1ccccc1)CC(=O)N2c1ccc(F)cc1 (centres undefined) | > 1000 µg/mL | > 1000 µg/mL | 500 µg/mL (≈ 1050 µM) | 0.5 µg/mL (≈ 1.05 µM) | 500 µg/mL (≈ 1050 µM) | – | – | –
Cc1ccc(-c2nn(-c3ccccc3)cc2C2CC(=O)N(c3ccc(F)cc3)C3=C2C(=O)CC(C)(C)C3)cc1 (centres undefined) | 500 µg/mL (≈ 962 µM) | 500 µg/mL (≈ 962 µM) | 500 µg/mL (≈ 962 µM) | 0.5 µg/mL (≈ 0.962 µM) | 100 µg/mL (≈ 192 µM) | – | – | –
CC1(C)CC(=O)C2=C(C1)N(c1ccc(F)cc1)C(=O)CC2c1cn(-c2ccccc2)nc1-c1ccccc1 (centres undefined) | 500 µg/mL (≈ 989 µM) | 500 µg/mL (≈ 989 µM) | 500 µg/mL (≈ 989 µM) | 0.2 µg/mL (≈ 0.396 µM) | 150 µg/mL (≈ 297 µM) | – | – | –
O=C1CCCC2=C1C(c1cn(-c3ccccc3)nc1-c1ccc(Br)cc1)CC(=O)N2c1ccc(F)cc1 (centres undefined) | 500 µg/mL (≈ 899 µM) | > 1000 µg/mL | 62.5 µg/mL (≈ 112 µM) | 0.5 µg/mL (≈ 0.899 µM) | 250 µg/mL (≈ 449 µM) | – | – | –
NYSTATIN | – | – | – | – | – | 100 µg/mL | 100 µg/mL | –
O=C(O)c1cn(C2CC2)c2cc(N3CCNCC3)c(F)cc2c1=O [CIPROFLOXACIN] | – | – | 25 µg/mL (≈ 75.4 µM) | 0.05 µg/mL (≈ 0.151 µM) | 50 µg/mL (≈ 151 µM) | – | – | –
O=C1CCCC2=C1C(c1cn(-c3ccccc3)nc1-c1cccs1)CC(=O)N2c1ccc(F)cc1 (centres undefined) | 500 µg/mL (≈ 1030 µM) | 1000 µg/mL (≈ 2070 µM) | 100 µg/mL (≈ 207 µM) | 0.25 µg/mL (≈ 0.517 µM) | 200 µg/mL (≈ 414 µM) | – | – | –
CC1(C)S[C@@H]2[C@H](NC(=O)[C@H](N)c3ccccc3)C(=O)N2[C@H]1C(=O)O [AMPICILLIN] | – | – | 100 µg/mL (≈ 286 µM) | 0.25 µg/mL (≈ 0.715 µM) | 100 µg/mL (≈ 286 µM) | – | – | –
COc1ccc(-c2nn(-c3ccccc3)cc2C2CC(=O)N(c3ccc(F)cc3)C3=C2C(=O)CCC3)cc1 (centres undefined) | 1000 µg/mL (≈ 1970 µM) | 500 µg/mL (≈ 985 µM) | 100 µg/mL (≈ 197 µM) | 0.5 µg/mL (≈ 0.985 µM) | 250 µg/mL (≈ 493 µM) | – | – | –
GENTAMICIN | – | – | – | – | – | – | – | 0.001 µg/mL
COc1ccc(-c2nn(-c3ccccc3)cc2C2CC(=O)N(c3ccc(F)cc3)C3=C2C(=O)CC(C)(C)C3)cc1 (centres undefined) | 1000 µg/mL (≈ 1870 µM) | 1000 µg/mL (≈ 1870 µM) | 250 µg/mL (≈ 467 µM) | 0.2 µg/mL (≈ 0.373 µM) | 100 µg/mL (≈ 187 µM) | – | – | –
Cc1ccc(-c2nn(-c3ccccc3)cc2C2CC(=O)N(c3ccc(F)cc3)C3=C2C(=O)CCC3)cc1 (centres undefined) | 1000 µg/mL (≈ 2030 µM) | 500 µg/mL (≈ 1020 µM) | 250 µg/mL (≈ 509 µM) | 0.25 µg/mL (≈ 0.509 µM) | 100 µg/mL (≈ 203 µM) | – | – | –
COC1=CC(=O)C[C@@H](C)[C@]12Oc1c(Cl)c(OC)cc(OC)c1C2=O [GRISEOFULVIN] | 500 µg/mL (≈ 1420 µM) | 100 µg/mL (≈ 283 µM) | – | – | – | – | – | –
CC1(C)CC(=O)C2=C(C1)N(c1ccc(F)cc1)C(=O)CC2c1cn(-c2ccccc2)nc1-c1cccs1 (centres undefined) | 500 µg/mL (≈ 977 µM) | 1000 µg/mL (≈ 1950 µM) | 200 µg/mL (≈ 391 µM) | 0.25 µg/mL (≈ 0.489 µM) | 500 µg/mL (≈ 977 µM) | – | – | –
CC1(C)CC(=O)C2=C(C1)N(c1ccc(F)cc1)C(=O)CC2c1cn(-c2ccccc2)nc1-c1ccc(F)cc1 (centres undefined) | 500 µg/mL (≈ 955 µM) | 1000 µg/mL (≈ 1910 µM) | 150 µg/mL (≈ 286 µM) | 0.5 µg/mL (≈ 0.955 µM) | 500 µg/mL (≈ 955 µM) | – | – | –
O=C(N[C@H](CO)[C@H](O)c1ccc([N+](=O)[O-])cc1)C(Cl)Cl [CHLORAMPHENICOL] | – | – | 50 µg/mL (≈ 155 µM) | 0.05 µg/mL (≈ 0.155 µM) | 50 µg/mL (≈ 155 µM) | – | – | –
